Patent US20030180808A1, “Drug signatures” (priority 2002, published 2003)
“Also recorded” adds a separate entry of the source. Where two headings read alike, the source gives them in different places.

Key:
[1] = target: T1, PXR receptors (Mus musculus, UniProt O54915); conditions: cited from earlier work
T1 sequence (O54915 1-431): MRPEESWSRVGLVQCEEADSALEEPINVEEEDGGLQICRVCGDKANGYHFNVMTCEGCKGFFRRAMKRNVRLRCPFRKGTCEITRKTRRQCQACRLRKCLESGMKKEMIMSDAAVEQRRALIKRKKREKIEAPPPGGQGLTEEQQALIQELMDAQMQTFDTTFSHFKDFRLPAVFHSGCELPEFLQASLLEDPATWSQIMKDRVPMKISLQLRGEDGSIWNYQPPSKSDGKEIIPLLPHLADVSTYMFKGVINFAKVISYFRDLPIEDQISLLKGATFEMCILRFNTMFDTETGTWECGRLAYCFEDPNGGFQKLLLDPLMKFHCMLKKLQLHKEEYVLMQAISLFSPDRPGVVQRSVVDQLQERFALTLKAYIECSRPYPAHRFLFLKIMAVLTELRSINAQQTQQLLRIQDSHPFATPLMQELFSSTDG

[2] = rats, from the literature or experience, cited from earlier work
[3] = system: 123 assays completed (panel of sites of drug action and drug toxicity); test: Molecular pharmacology assay panel (MDS-Pharma Services catalog); conditions: for activity in the 123 assays completed: <50% inhibition binned as 0, preliminary test at 30 μM
[4] = target: T2, estrogen receptor (Homo sapiens, UniProt P03372); conditions: read-out: EC50 stimulation of ER; cited from earlier work
T2 sequence (P03372 1-595): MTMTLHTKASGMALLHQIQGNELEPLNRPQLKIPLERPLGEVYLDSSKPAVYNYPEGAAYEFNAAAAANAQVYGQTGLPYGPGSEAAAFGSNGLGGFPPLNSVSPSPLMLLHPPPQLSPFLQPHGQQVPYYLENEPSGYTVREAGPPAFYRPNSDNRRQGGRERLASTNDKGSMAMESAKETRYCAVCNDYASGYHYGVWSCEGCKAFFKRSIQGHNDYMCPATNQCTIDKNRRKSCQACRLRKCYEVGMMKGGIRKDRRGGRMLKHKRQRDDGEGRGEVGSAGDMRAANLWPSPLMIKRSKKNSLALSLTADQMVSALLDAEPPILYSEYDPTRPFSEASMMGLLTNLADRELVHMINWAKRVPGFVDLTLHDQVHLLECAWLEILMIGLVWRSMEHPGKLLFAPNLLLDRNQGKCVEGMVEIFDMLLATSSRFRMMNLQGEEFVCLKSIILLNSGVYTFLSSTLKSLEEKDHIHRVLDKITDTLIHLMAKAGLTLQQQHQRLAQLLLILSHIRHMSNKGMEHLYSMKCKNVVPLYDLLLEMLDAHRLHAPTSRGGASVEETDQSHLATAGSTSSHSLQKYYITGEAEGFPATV

[5] = target: T3, PPARα (Homo sapiens, UniProt Q07869); conditions: cited from earlier work
T3 sequence (Q07869 1-468): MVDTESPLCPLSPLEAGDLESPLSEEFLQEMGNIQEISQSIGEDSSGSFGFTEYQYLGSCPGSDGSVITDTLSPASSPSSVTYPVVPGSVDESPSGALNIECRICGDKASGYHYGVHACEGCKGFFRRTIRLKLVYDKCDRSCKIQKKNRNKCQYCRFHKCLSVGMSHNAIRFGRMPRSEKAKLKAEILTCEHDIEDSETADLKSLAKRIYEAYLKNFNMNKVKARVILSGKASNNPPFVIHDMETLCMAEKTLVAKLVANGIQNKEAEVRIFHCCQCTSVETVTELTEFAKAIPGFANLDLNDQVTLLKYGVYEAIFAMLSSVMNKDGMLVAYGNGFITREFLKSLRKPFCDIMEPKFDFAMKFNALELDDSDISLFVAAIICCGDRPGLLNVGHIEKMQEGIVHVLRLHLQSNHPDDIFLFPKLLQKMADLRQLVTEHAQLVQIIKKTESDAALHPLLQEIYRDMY

[6] = system: site-2 sodium channel; test: Molecular pharmacology panel assay: site-2 sodium channel
[7] = target: T2, estrogen receptor; test: Molecular pharmacology panel assay: estrogen receptor
[8] = hypertriglyceridemic patients; known side effect; cited from earlier work

| Molecule | maximum tolerated dose (MTD) ([2]; subcutaneously in arrachis oil) [mg/kg] | maximum tolerated dose (MTD) ([2]; oral gavage in 1% NaCMC) | activity in the 123 assays completed [3] | also measured |
| --- | --- | --- | --- | --- |
| CC(C)(c1ccc(O)cc1)c1ccc(O)cc1 [BPA, bisphenol A] | 150 | – | – | activity on PXR [1]: completely inactive |
| CCOC(=O)C(C)(C)Oc1ccc(Cl)cc1 [Clofibrate, clofibrate] | – | 250 mg/kg | no activity | – |
| CCCCC(CC)COC(=O)c1ccccc1C(=O)OCC(CC)CCCC (centres unmarked) [DEHP] | – | 1,000 mg/kg | no activity | EC50 [4]: ~1000 nM; stimulation of PPARα [5]: potently stimulate |
| C[C@]12CC[C@@H]3c4ccc(O)cc4CC[C@H]3[C@@H]1CC[C@@H]2O [Estradiol] | – | – | – | activity on PXR [1]: completely inactive |
| CC(C)OC(=O)C(C)(C)Oc1ccc(C(=O)c2ccc(Cl)cc2)cc1 [Fenofibrate] | – | 1,000 mg/kg | – | interaction with the site-2 sodium channel [6]: interacted weakly; interaction with the estrogen receptor [7]: interacted weakly |
| Cc1ccc(C)c(OCCCC(C)(C)C(=O)O)c1 [Gemfibrozil, gemfibrozil] | – | 300 mg/kg | no activity | effect on LDL levels [8]: induce an increase in LDL (low density lipoprotein) levels; also recorded: induces an increase in LDL levels |
| CC(C)(C)CC(C)(C)c1ccc(O)cc1 [OP] | 450 | – | – | number of assays in which compound interacted ([3]; of the 123 assays conducted): 16 |
| C[C@]12CC[C@@H]3c4ccc(OC(=O)c5ccccc5)cc4CC[C@H]3[C@@H]1CC[C@@H]2O [estradiol benzoate, Estradiol benzoate] | 2 | – | – | – |
| nonylphenol | – | – | – | EC50 [4]: ~1000 nM; EC50 ([1]; read-out: EC50 stimulation of PXR receptors): ~500 nM |
